Assay results from the kinase profiling compilation of Christmann-Franck et al. (2016).

How the values were obtained:
Assay in all cases: radiometric filter-binding kinase assay, Kinase HotSpot
Settings in all cases: compound 0.5 µM; ATP 10 µM
ABL1 (human) = ABL1 (human) (UniProt P00519)
ACVRL1 (human) = ACVRL1 (human) (UniProt P37023)
BRSK2 (human) = BRSK2 (human) (UniProt Q8IWQ3)
BTK (human) = BTK (human) (UniProt Q06187)
CAMK2G (human) = CAMK2G (human) (UniProt Q13555)
CAMK4 (human) = CAMK4 (human) (UniProt Q16566)
CDK7 CCNH MNAT1 (human) = CDK7 CCNH MNAT1 (human) (UniProt P50613+P51948+P51946)
CDK9 CCNK (human) = CDK9 CCNK (human) (UniProt O75909+P50750)
CLK1 (human) = CLK1 (human) (UniProt P49759)
CLK3 (human) = CLK3 (human) (UniProt P49761)
CSNK1A1 (human) = CSNK1A1 (human) (UniProt P48729)
CSNK1E (human) = CSNK1E (human) (UniProt P49674)
CSNK2A1 (human) = CSNK2A1 (human) (UniProt P68400)
DYRK2 (human) = DYRK2 (human) (UniProt Q92630)
DYRK3 (human) = DYRK3 (human) (UniProt O43781)
DYRK4 (human) = DYRK4 (human) (UniProt Q9NR20)
EPHA4 (human) = EPHA4 (human) (UniProt P54764)
ERBB2 (human) = ERBB2 (human) (UniProt P04626)
FGFR3 (human) = FGFR3 (human) (UniProt P22607)
GRK4 (human) = GRK4 (human) (UniProt P32298)
GSK3B (human) = GSK3B (human) (UniProt P49841)
HIPK2 (human) = HIPK2 (human) (UniProt Q9H2X6)
MAP3K10 (human) = MAP3K10 (human) (UniProt Q02779)
MAP3K11 (human) = MAP3K11 (human) (UniProt Q16584)
MAP3K3 (human) = MAP3K3 (human) (UniProt Q99759)
MAPK1 (human) = MAPK1 (human) (UniProt P28482)
MINK1 (human) = MINK1 (human) (UniProt Q8N4C8)
NEK3 (human) = NEK3 (human) (UniProt P51956)
NEK7 (human) = NEK7 (human) (UniProt Q8TDX7)
PNCK (human) = PNCK (human) (UniProt Q6P2M8)
PRKACA (human) = PRKACA (human) (UniProt P17612)
RIPK2 (human) = RIPK2 (human) (UniProt O43353)
ROCK1 (human) = ROCK1 (human) (UniProt Q13464)
RPS6KA6 KD1 KD2 (human) = RPS6KA6 KD1 KD2 (human) (UniProt Q9UK32)
RPS6KB2 (human) = RPS6KB2 (human) (UniProt Q9UBS0)
SGK2 (human) = SGK2 (human) (UniProt Q9HBY8)
SRPK2 (human) = SRPK2 (human) (UniProt P78362)
SRPK3 (human) = SRPK3 (human) (UniProt Q9UPE1)
STK10 (human) = STK10 (human) (UniProt O94804)
TEK (human) = TEK (human) (UniProt Q02763)
TNK2 (human) = TNK2 (human) (UniProt Q07912)
ULK1 (human) = ULK1 (human) (UniProt O75385)

SRPK2 (human), sequence (P78362 whole entry, looked up): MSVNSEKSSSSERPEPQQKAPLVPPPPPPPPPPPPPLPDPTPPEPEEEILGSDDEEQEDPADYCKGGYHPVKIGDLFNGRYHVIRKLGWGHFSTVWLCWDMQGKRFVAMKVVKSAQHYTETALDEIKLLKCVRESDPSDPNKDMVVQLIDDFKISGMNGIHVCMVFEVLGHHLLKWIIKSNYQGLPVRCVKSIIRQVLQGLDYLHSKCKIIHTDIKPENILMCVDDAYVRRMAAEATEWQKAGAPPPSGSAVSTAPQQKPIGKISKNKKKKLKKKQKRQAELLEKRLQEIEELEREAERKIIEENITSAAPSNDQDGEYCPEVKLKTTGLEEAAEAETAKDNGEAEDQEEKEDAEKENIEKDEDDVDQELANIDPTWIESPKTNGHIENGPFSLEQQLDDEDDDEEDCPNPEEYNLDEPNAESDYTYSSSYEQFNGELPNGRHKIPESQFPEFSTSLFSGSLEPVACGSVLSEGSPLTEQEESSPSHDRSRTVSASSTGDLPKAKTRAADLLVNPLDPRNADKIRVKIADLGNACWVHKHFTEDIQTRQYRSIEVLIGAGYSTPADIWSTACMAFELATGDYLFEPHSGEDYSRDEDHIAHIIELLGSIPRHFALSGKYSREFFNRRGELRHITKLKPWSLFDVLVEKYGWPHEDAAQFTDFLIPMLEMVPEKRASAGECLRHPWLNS
STK10 (human), sequence (O94804 whole entry, looked up): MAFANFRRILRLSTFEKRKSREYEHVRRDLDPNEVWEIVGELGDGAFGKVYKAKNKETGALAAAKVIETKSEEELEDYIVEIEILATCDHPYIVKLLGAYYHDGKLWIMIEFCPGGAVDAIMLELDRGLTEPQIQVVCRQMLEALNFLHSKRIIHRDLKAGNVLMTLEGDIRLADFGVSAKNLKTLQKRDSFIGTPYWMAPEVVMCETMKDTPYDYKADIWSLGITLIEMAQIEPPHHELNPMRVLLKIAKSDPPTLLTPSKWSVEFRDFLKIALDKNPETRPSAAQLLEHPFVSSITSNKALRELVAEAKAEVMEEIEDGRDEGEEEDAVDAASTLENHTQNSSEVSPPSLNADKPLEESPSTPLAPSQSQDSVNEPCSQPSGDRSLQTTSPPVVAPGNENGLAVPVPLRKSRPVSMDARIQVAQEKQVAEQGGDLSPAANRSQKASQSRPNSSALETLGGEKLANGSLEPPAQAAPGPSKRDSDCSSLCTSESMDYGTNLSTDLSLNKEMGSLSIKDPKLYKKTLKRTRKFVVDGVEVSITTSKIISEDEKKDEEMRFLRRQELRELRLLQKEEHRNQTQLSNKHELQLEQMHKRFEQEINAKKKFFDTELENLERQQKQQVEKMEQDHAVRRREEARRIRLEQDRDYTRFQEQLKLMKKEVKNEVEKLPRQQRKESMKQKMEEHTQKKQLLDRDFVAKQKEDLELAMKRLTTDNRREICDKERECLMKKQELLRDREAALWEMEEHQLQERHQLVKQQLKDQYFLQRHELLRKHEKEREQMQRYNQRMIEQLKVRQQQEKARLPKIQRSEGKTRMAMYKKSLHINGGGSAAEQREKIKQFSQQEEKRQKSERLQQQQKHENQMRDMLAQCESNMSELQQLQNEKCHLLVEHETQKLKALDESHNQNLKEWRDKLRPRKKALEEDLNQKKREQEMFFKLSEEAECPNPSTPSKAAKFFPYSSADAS
SRPK3 (human), sequence (Q9UPE1 whole entry, looked up): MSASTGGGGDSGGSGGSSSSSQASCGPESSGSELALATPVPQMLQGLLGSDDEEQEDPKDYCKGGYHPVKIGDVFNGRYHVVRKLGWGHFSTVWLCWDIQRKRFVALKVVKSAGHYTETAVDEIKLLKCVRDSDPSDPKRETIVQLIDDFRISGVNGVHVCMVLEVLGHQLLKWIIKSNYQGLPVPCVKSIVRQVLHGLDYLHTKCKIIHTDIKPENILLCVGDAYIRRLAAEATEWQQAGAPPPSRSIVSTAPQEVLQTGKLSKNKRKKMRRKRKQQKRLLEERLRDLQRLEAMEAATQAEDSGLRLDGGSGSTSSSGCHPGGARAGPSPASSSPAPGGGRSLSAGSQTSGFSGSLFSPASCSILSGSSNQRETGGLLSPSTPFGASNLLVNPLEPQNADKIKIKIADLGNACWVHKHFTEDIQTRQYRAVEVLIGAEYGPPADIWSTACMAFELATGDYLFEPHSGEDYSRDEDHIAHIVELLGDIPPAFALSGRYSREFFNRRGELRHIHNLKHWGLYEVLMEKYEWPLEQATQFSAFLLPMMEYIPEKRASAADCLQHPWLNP
RIPK2 (human), sequence (O43353 whole entry, looked up): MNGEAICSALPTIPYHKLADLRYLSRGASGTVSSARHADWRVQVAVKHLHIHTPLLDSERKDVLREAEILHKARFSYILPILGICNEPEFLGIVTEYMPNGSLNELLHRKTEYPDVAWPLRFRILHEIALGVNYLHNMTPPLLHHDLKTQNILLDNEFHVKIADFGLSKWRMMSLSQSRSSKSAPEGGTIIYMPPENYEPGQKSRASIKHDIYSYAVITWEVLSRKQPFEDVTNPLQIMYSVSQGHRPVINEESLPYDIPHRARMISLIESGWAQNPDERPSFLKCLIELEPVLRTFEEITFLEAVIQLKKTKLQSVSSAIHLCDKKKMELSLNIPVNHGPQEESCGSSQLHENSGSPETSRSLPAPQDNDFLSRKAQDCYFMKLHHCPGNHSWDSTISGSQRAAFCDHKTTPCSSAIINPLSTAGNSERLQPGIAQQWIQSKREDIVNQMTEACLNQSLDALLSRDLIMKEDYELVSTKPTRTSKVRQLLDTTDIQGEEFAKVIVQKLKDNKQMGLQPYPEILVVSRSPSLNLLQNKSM
CLK1 (human), sequence (P49759 whole entry, looked up): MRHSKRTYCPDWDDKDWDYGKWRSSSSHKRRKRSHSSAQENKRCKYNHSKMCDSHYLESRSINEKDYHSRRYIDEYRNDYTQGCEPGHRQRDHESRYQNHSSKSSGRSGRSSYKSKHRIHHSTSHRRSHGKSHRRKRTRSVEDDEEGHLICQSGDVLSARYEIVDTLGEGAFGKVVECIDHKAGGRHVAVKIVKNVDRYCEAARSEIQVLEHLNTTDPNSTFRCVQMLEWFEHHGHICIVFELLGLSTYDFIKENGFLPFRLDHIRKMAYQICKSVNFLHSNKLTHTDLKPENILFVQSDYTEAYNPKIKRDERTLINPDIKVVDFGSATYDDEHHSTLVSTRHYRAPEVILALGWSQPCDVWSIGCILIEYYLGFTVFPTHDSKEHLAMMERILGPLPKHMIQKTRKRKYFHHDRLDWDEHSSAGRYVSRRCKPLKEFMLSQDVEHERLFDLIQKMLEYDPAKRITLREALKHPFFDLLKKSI
RPS6KA6 KD1 KD2 (human), sequence (Q9UK32 whole entry, looked up): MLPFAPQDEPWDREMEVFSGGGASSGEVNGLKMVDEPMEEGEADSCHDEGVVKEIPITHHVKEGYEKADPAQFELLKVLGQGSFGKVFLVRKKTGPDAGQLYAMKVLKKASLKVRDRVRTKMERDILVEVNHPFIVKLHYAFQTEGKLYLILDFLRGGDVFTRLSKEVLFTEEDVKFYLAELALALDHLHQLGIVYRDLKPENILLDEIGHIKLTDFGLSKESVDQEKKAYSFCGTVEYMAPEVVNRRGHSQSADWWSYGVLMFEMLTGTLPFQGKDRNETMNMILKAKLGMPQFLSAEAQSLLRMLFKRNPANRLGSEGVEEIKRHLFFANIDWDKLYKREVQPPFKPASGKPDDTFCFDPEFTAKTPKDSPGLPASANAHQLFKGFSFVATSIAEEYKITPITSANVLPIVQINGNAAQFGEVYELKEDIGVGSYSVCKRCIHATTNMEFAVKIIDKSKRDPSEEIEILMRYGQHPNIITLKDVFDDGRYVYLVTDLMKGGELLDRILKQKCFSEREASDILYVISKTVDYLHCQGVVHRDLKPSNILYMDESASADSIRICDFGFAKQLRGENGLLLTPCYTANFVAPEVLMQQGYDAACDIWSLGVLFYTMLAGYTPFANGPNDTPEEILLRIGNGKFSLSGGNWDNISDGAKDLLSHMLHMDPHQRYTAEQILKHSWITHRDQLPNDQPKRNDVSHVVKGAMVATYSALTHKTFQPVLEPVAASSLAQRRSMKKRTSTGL
EPHA4 (human), sequence (P54764 whole entry, looked up): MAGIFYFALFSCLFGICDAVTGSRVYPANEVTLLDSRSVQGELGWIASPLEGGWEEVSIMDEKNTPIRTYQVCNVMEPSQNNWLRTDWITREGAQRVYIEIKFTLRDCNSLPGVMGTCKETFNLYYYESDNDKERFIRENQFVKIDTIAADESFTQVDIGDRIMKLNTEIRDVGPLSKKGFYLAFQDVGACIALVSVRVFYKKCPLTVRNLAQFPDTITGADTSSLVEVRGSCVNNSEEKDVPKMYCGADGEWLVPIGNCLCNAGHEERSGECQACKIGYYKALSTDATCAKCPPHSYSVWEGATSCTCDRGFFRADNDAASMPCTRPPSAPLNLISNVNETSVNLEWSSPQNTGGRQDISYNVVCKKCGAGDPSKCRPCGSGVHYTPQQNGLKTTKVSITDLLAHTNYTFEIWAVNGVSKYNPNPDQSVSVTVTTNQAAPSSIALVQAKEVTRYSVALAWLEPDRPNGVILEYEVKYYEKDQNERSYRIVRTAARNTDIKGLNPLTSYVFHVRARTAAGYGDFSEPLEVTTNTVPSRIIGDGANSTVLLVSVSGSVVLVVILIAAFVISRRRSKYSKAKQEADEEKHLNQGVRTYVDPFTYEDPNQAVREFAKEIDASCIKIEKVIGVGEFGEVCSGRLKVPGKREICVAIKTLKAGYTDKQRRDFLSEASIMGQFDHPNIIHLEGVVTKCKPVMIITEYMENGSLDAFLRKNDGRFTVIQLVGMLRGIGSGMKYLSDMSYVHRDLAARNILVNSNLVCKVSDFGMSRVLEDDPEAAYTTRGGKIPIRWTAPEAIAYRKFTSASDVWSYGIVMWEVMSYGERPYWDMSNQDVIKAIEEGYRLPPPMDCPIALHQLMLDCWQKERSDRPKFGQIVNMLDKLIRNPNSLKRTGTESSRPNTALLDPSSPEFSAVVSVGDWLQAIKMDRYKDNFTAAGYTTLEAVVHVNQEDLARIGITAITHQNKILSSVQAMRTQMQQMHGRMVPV

CN(C)C[C@H]1CCn2c(c(C3=C(c4cn(C)c5ccccc45)C(=O)NC3=O)c3ccccc32)C1
residual activity (ABL1 (human)): 98% | residual activity (ACVRL1 (human)): 98.5% | residual activity (BRSK2 (human)): 102% | residual activity (BTK (human)): 103% | residual activity (CAMK2G (human)): 100% | residual activity (CAMK4 (human)): 95.5% | residual activity (CDK7 CCNH MNAT1 (human)): 83% | residual activity (CDK9 CCNK (human)): 43.5% | residual activity (CLK1 (human)): 105% | residual activity (CLK3 (human)): 94.7% | residual activity (CSNK1A1 (human)): 98.5% | residual activity (CSNK1E (human)): 99.7% | residual activity (CSNK2A1 (human)): 98.9% | residual activity (DYRK2 (human)): 102% | residual activity (DYRK3 (human)): 102% | residual activity (DYRK4 (human)): 98.9% | residual activity (EPHA4 (human)): 103% | residual activity (ERBB2 (human)): 95.9% | residual activity (FGFR3 (human)): 96.3% | residual activity (GRK4 (human)): 76.4% | residual activity (GSK3B (human)): 11.2% | residual activity (HIPK2 (human)): 94.1% | residual activity (MAP3K10 (human)): 102% | residual activity (MAP3K11 (human)): 95.2% | residual activity (MAP3K3 (human)): 86.1% | residual activity (MAPK1 (human)): 101% | residual activity (MINK1 (human)): 97.8% | residual activity (NEK3 (human)): 99.4% | residual activity (NEK7 (human)): 100% | residual activity (PNCK (human)): 95.2% | residual activity (PRKACA (human)): 87.2% | residual activity (RIPK2 (human)): 94.4% | residual activity (ROCK1 (human)): 106% | residual activity (RPS6KA6 KD1 KD2 (human)): 2.94% | residual activity (RPS6KB2 (human)): 67.6% | residual activity (SGK2 (human)): 71.7% | residual activity (SRPK2 (human)): 91.5% | residual activity (SRPK3 (human)): 100% | residual activity (STK10 (human)): 26.6% | residual activity (TEK (human)): 98.4% | residual activity (TNK2 (human)): 96.3% | residual activity (ULK1 (human)): 98.9%

CC(C)[C@H](CO)Nc1nc(Nc2cc(N)cc(Cl)c2)c2ncn(C(C)C)c2n1
residual activity (ABL1 (human)): 45.5% | residual activity (ACVRL1 (human)): 109% | residual activity (BRSK2 (human)): 88.2% | residual activity (BTK (human)): 33% | residual activity (CAMK2G (human)): 104% | residual activity (CAMK4 (human)): 97.4% | residual activity (CDK7 CCNH MNAT1 (human)): 54.7% | residual activity (CLK1 (human)): 51.9% | residual activity (CLK3 (human)): 85.5% | residual activity (CSNK1A1 (human)): 75.5% | residual activity (CSNK1E (human)): 82.7% | residual activity (CSNK2A1 (human)): 99.3% | residual activity (DYRK2 (human)): 93.2% | residual activity (DYRK3 (human)): 103% | residual activity (DYRK4 (human)): 91.6% | residual activity (EPHA4 (human)): 61.4% | residual activity (ERBB2 (human)): 92.9% | residual activity (FGFR3 (human)): 79.4% | residual activity (GRK4 (human)): 103% | residual activity (GSK3B (human)): 103% | residual activity (HIPK2 (human)): 94.3% | residual activity (MAP3K10 (human)): 95.1% | residual activity (MAP3K11 (human)): 17.7% | residual activity (MAP3K3 (human)): 100% | residual activity (MAPK1 (human)): 95.4% | residual activity (MINK1 (human)): 94.5% | residual activity (NEK3 (human)): 100% | residual activity (NEK7 (human)): 89% | residual activity (PNCK (human)): 132% | residual activity (PRKACA (human)): 101% | residual activity (RIPK2 (human)): 87.7% | residual activity (ROCK1 (human)): 90% | residual activity (RPS6KA6 KD1 KD2 (human)): 46.1% | residual activity (RPS6KB2 (human)): 98.2% | residual activity (SGK2 (human)): 121% | residual activity (SRPK2 (human)): 31% | residual activity (SRPK3 (human)): 37.7% | residual activity (STK10 (human)): 55.6% | residual activity (TEK (human)): 92.5% | residual activity (TNK2 (human)): 47.8% | residual activity (ULK1 (human)): 41.5%

COc1cc2ncc(-c3ccccc3)nc2cc1OC
residual activity (ABL1 (human)): 94.1% | residual activity (ACVRL1 (human)): 95.8% | residual activity (BRSK2 (human)): 103% | residual activity (BTK (human)): 98% | residual activity (CAMK2G (human)): 94.5% | residual activity (CAMK4 (human)): 95.2% | residual activity (CDK7 CCNH MNAT1 (human)): 109% | residual activity (CDK9 CCNK (human)): 102% | residual activity (CLK1 (human)): 102% | residual activity (CLK3 (human)): 90.1% | residual activity (CSNK1A1 (human)): 100% | residual activity (CSNK1E (human)): 79.3% | residual activity (DYRK2 (human)): 95.9% | residual activity (DYRK3 (human)): 95.4% | residual activity (DYRK4 (human)): 112% | residual activity (EPHA4 (human)): 99.3% | residual activity (ERBB2 (human)): 116% | residual activity (FGFR3 (human)): 96% | residual activity (GRK4 (human)): 97.8% | residual activity (GSK3B (human)): 113% | residual activity (HIPK2 (human)): 78.7% | residual activity (MAP3K10 (human)): 105% | residual activity (MAP3K11 (human)): 86.8% | residual activity (MAP3K3 (human)): 90.3% | residual activity (MAPK1 (human)): 95.6% | residual activity (MINK1 (human)): 93.5% | residual activity (NEK3 (human)): 90.5% | residual activity (NEK7 (human)): 102% | residual activity (PNCK (human)): 98.2% | residual activity (PRKACA (human)): 99.4% | residual activity (RIPK2 (human)): 90.3% | residual activity (ROCK1 (human)): 95.5% | residual activity (RPS6KA6 KD1 KD2 (human)): 98.5% | residual activity (RPS6KB2 (human)): 104% | residual activity (SGK2 (human)): 95.6% | residual activity (SRPK2 (human)): 84.4% | residual activity (SRPK3 (human)): 91.1% | residual activity (STK10 (human)): 89.6% | residual activity (TEK (human)): 85.7% | residual activity (TNK2 (human)): 93.2% | residual activity (ULK1 (human)): 84.5%

CN([C@@H](Cc1ccc(OS(=O)(=O)c2cccc3cnccc23)cc1)C(=O)N1CCN(c2ccccc2)CC1)S(=O)(=O)c1cccc2cnccc12
residual activity (ABL1 (human)): 100% | residual activity (ACVRL1 (human)): 103% | residual activity (BRSK2 (human)): 100% | residual activity (BTK (human)): 97.1% | residual activity (CAMK4 (human)): 102% | residual activity (CDK7 CCNH MNAT1 (human)): 99.4% | residual activity (CDK9 CCNK (human)): 89.4% | residual activity (CLK1 (human)): 97.3% | residual activity (CLK3 (human)): 103% | residual activity (CSNK1A1 (human)): 99% | residual activity (CSNK1E (human)): 103% | residual activity (CSNK2A1 (human)): 100% | residual activity (DYRK2 (human)): 97.7% | residual activity (DYRK3 (human)): 112% | residual activity (DYRK4 (human)): 97.8% | residual activity (EPHA4 (human)): 95.4% | residual activity (ERBB2 (human)): 96% | residual activity (FGFR3 (human)): 98.8% | residual activity (GRK4 (human)): 96.5% | residual activity (GSK3B (human)): 96.6% | residual activity (HIPK2 (human)): 109% | residual activity (MAP3K10 (human)): 92.6% | residual activity (MAP3K11 (human)): 105% | residual activity (MAP3K3 (human)): 96.4% | residual activity (MAPK1 (human)): 95.5% | residual activity (MINK1 (human)): 98.2% | residual activity (NEK3 (human)): 99.8% | residual activity (NEK7 (human)): 93.3% | residual activity (PNCK (human)): 99.7% | residual activity (RIPK2 (human)): 89.4% | residual activity (ROCK1 (human)): 97.9% | residual activity (RPS6KA6 KD1 KD2 (human)): 100% | residual activity (RPS6KB2 (human)): 96.6% | residual activity (SGK2 (human)): 100% | residual activity (SRPK2 (human)): 99.4% | residual activity (SRPK3 (human)): 98% | residual activity (STK10 (human)): 96.3% | residual activity (TEK (human)): 106% | residual activity (TNK2 (human)): 94.8% | residual activity (ULK1 (human)): 101%
